In PMC11642016 (International Journal of Molecular Sciences, 2024):
Several values for one entry are separate records, joined by “and”; a condition that tells them apart may be missing. Identical values can stand only once. Like-named read-outs stand apart in the source and are kept apart here.

Key:
PANC-1 cells [1] = test: Colony formation (clonogenic) assay; type: cell-based, human; settings: 4 µM
PANC-1 cells [2] = test: CellTiter-Glo luminescent cell viability assay, PANC-1
Description: (§1) Primary fibroblast cultures were prepared from human skin biopsies and maintained in DMEM supplemented with 10% FBS, 1% penicillin-streptomycin, and 1% MEM Non-Essential Amino Acids Solution (Thermo Fisher Scientific). […] All cell lines were cultured in a humidified atmosphere at 37 °C and 5% CO2, passaged twice a week, and the experiments were performed on cells between passage 5 and 15. The cell lines were routinely screened for the absence of mycoplasma infection (DAPI staining).
(§2) The effects of the synthesized compounds on cell viability were measured using the CellTiter-Glo® luminescent cell viability assay (Promega, Madison, WI, USA), according to the manufacturer’s instructions. Briefly, cells were seeded onto a flat-bottomed, white 96-well plate (BRANDplates, cat. no.: 781965)), with the following densities: PANC-1: 750 cells/well, Fadu: 2000 cells/well, primary fibroblasts: 2000 cells/well, HEK293T WT: 1000 cells/well, HEK293T CLPP^−/−: 2500 cells/well. After seeding, cells were incubated for a further 48 h before treatment. Cells were treated with the compounds for 72 h. Three concentrations (25.0 µM; 8.3 µM; 2.8 µM) were applied during the initial cell viability screening, while for the determination of dose–response curves, 1.5-fold serially diluted compound concentrations were applied (range: 26 µM–0.7 µM). After treatment, the luminescence signal was recorded using a microplate reader (BioTek Synergy 2 Multi-Mode Reader, BioTek, Winooski, VT, USA).
(§3) Data analysis was performed using GraphPad Prism 9.5.0 software (GraphPad Software, San Diego, CA, USA). […] The dose–response curves were generated by four-parameter nonlinear regression, and the IC50 values were determined as the means ± SEM of the best-fit values of 3 independent measurements. The R^2 values were consistently above 0.93, indicating a strong fit of the model to the experimental data (Supplementary S.89). […] Dunnett’s post hoc test was applied to adjust for multiple comparisons, minimizing the likelihood of false positive results. Assumptions for ANOVA, including normality (assessed via QQ plots) and homogeneity of variance (tested using the Brown–Forsythe test), were verified. The following significance levels were applied: * p < 0.05, ** p < 0.01, *** p < 0.001, **** p < 0.0001. […] The tumor selectivity of the compounds was quantitatively characterized by the selectivity index (SI). This parameter was calculated as the ratio of the average best-fit IC50 value for primary fibroblasts and the best-fit IC50 value for the corresponding tumor cells (PANC-1 or Fadu).

[3] = CellTiter-Glo luminescent cell viability assay, primary fibroblasts; settings: human, primary skin fibroblasts (non-tumorous), Primer fibroblast Cell viability (% of controll), 72 h, dose–response, individual replicates
Description: as §1, §2, §3

[4] = test system: non-tumorous primary fibroblast cells; test: as above; settings: for Primer fibroblast Cell viability (% of controll): dose–response, individual replicates; for IC50: Homo sapiens, Fibroblast
Description: as §1, §2, §3

Fadu cells = test: CellTiter-Glo luminescent cell viability assay, Fadu; settings: 72 h, dose–response, individual replicates

**Q.** Which “viable cells / colonies after shorter exposure” value (PANC-1 cells [1]; 24 h treatment followed by 5 days post-incubation) does the source give for `CNCC#Cc1cccc(CN2C(=O)C3=C(CCN(Cc4ccc(-n5cc(-c6ccccc6)nn5)cc4)C3)N3CCN=C23)c1` [38b] here?
**A.** left only traces of viable cells

**Q.** And the “viable cells / colonies after longer exposure” value (PANC-1 cells [1]; 72 h treatment followed by 3 days post-incubation)?
**A.** no viable cells were discernible

**Q.** And the “PANC-1 Cell viability (% of controll)” value (PANC-1 cells [2]; 0.7 μM, 72 h, dose–response, individual replicates)?
**A.** 103 % of controll

**Q.** What about the “PANC-1 Cell viability (% of controll)” value (PANC-1 cells [2]; 1 μM, 72 h, dose–response, individual replicates) of the same molecule?
**A.** 108 % of controll

**Q.** What about the “PANC-1 Cell viability (% of controll)” value (PANC-1 cells [2]; 1.5 μM, 72 h, dose–response, individual replicates) of the same molecule?
**A.** 107 % of controll and 116 % of controll

**Q.** And the “PANC-1 Cell viability (% of controll)” value (PANC-1 cells [2]; 2.3 μM, 72 h, dose–response, individual replicates)?
**A.** 79 % of controll and 98 % of controll

**Q.** And the “PANC-1 Cell viability (% of controll)” value (PANC-1 cells [2]; 3.4 μM, 72 h, dose–response, individual replicates)?
**A.** 0 % of controll and 1 % of controll

**Q.** What about the “PANC-1 Cell viability (% of controll)” value (PANC-1 cells [2]; 5.1 μM, 72 h, dose–response, individual replicates) of the same molecule?
**A.** 0 % of controll

**Q.** What about the “PANC-1 Cell viability (% of controll)” value (PANC-1 cells [2]; 7.7 μM, 72 h, dose–response, individual replicates) of the same molecule?
**A.** 0 % of controll

**Q.** And the “PANC-1 Cell viability (% of controll)” value (PANC-1 cells [2]; 17.3 μM, 72 h, dose–response, individual replicates)?
**A.** 0 % of controll

**Q.** And the “PANC-1 Cell viability (% of controll)” value (PANC-1 cells [2]; 26 μM, 72 h, dose–response, individual replicates)?
**A.** 0 % of controll

**Q.** And the viability at 2.8 µM (PANC-1 cells [2]; Homo sapiens, PANC-1, 72 h, read-out: Cell Viability (% of Control) 2.8 µM, PANC-1, 2.8 µM, 72 h, second-set screening, mean ± SD, n = 2)?
**A.** 6 ± 6%

**Q.** And the viability at 8.3 µM (PANC-1 cells [2]; Homo sapiens, PANC-1, 72 h, read-out: Cell Viability (% of Control) 8.3 µM, PANC-1, 8.3 µM, 72 h, second-set screening, mean ± SD, n = 2)?
**A.** 0%

**Q.** And the viability at 25 µM (PANC-1 cells [2]; Homo sapiens, PANC-1, 72 h, read-out: Cell Viability (% of Control) 25 µM, PANC-1, 25 µM, 72 h, second-set screening, mean ± SD, n = 2)?
**A.** 0%

**Q.** What about the IC50 (PANC-1 cells [2]; Homo sapiens, PANC-1, 72 h, read-out: IC50 Value ± SEM PANC-1, 72 h treatment, best-fit values, n = 3) of the same molecule?
**A.** 2.5 ± 0.23 µM

**Q.** What about the viability at 0.7 µM (PANC-1 cells [2]; Homo sapiens, PANC-1, 72 h, read-out: PANC-1 Cell viability (% of controll), 0.7 μM, 72 h, dose–response, individual replicates) of the same molecule?
**A.** 110%

**Q.** What about the viability at 1 µM (PANC-1 cells [2]; Homo sapiens, PANC-1, 72 h, read-out: PANC-1 Cell viability (% of controll), 1 μM, 72 h, dose–response, individual replicates) of the same molecule?
**A.** 110%

**Q.** What about the viability at 1.5 µM (PANC-1 cells [2]; Homo sapiens, PANC-1, 72 h, read-out: PANC-1 Cell viability (% of controll), 1.5 μM, 72 h, dose–response, individual replicates) of the same molecule?
**A.** 109%

**Q.** What about the viability at 2.3 µM (PANC-1 cells [2]; Homo sapiens, PANC-1, 72 h, read-out: PANC-1 Cell viability (% of controll), 2.3 μM, 72 h, dose–response, individual replicates) of the same molecule?
**A.** 81%

**Q.** What about the viability at 5.1 µM (PANC-1 cells [2]; Homo sapiens, PANC-1, 72 h, read-out: PANC-1 Cell viability (% of controll), 5.1 μM, 72 h, dose–response, individual replicates) of the same molecule?
**A.** 0%

**Q.** What about the viability at 7.7 µM (PANC-1 cells [2]; Homo sapiens, PANC-1, 72 h, read-out: PANC-1 Cell viability (% of controll), 7.7 μM, 72 h, dose–response, individual replicates) of the same molecule?
**A.** 0%

**Q.** And the viability at 17.3 µM (PANC-1 cells [2]; Homo sapiens, PANC-1, 72 h, read-out: PANC-1 Cell viability (% of controll), 17.3 μM, 72 h, dose–response, individual replicates)?
**A.** 0%

**Q.** And the viability at 26 µM (PANC-1 cells [2]; Homo sapiens, PANC-1, 72 h, read-out: PANC-1 Cell viability (% of controll), 26 μM, 72 h, dose–response, individual replicates)?
**A.** 0%

**Q.** And the IC50 (PANC-1 cells [2]; Homo sapiens, PANC-1, read-out: PANC-1 IC50 values, Mean, mean of independently fitted replicate IC50 values (Supplement S.6))?
**A.** 2.45 µM

**Q.** And the “Selectivity Index (SI) Fibroblast/PANC-1” value (PANC-1 cells [2]; ratio of mean best-fit IC50 for primary fibroblasts and best-fit IC50 for PANC-1)?
**A.** 1.8

**Q.** And the viability at 72 h, 0.7 µM ([3]; 0.7 μM)?
**A.** 103%

**Q.** What about the viability at 72 h, 1 µM ([3]; 1 μM) of the same molecule?
**A.** 112%

**Q.** What about the viability at 72 h, 1.5 µM ([3]; 1.5 μM) of the same molecule?
**A.** 106%

**Q.** What about the viability at 72 h, 2.3 µM ([3]; 2.3 μM) of the same molecule?
**A.** 116%

**Q.** And the viability at 72 h, 3.4 µM ([3]; 3.4 μM)?
**A.** 112%

**Q.** And the viability at 72 h, 5.1 µM ([3]; 5.1 μM)?
**A.** 6%

**Q.** What about the viability at 72 h, 7.7 µM ([3]; 7.7 μM) of the same molecule?
**A.** 0%

**Q.** What about the viability at 72 h, 17.3 µM ([3]; 17.3 μM) of the same molecule?
**A.** 0%

**Q.** What about the viability at 72 h, 26 µM ([3]; 26 μM) of the same molecule?
**A.** 0%

**Q.** And the “Primer fibroblast Cell viability (% of controll)” value ([4]; 0.7 μM, 72 h)?
**A.** 107 % of controll and 109 % of controll

**Q.** And the “Primer fibroblast Cell viability (% of controll)” value ([4]; 1 μM, 72 h)?
**A.** 117 % of controll and 101 % of controll

**Q.** What about the “Primer fibroblast Cell viability (% of controll)” value ([4]; 1.5 μM, 72 h) of the same molecule?
**A.** 118 % of controll

**Q.** And the “Primer fibroblast Cell viability (% of controll)” value ([4]; 2.3 μM, 72 h)?
**A.** 107 % of controll

**Q.** What about the “Primer fibroblast Cell viability (% of controll)” value ([4]; 3.4 μM, 72 h) of the same molecule?
**A.** 110 % of controll and 101 % of controll

**Q.** What about the “Primer fibroblast Cell viability (% of controll)” value ([4]; 5.1 μM, 72 h) of the same molecule?
**A.** 5 % of controll and 8 % of controll

**Q.** And the “Primer fibroblast Cell viability (% of controll)” value ([4]; 7.7 μM, 72 h)?
**A.** 0 % of controll

**Q.** And the “Primer fibroblast Cell viability (% of controll)” value ([4]; 17.3 μM, 72 h)?
**A.** 0 % of controll

**Q.** What about the “Primer fibroblast Cell viability (% of controll)” value ([4]; 26 μM, 72 h) of the same molecule?
**A.** 0 % of controll

**Q.** And the IC50 ([4]; 72 h, read-out: IC50 Value ± SEM Primary Fibroblast, 72 h treatment, best-fit values, n = 3)?
**A.** 4.4 ± 0.23 µM

**Q.** What about the IC50 ([4]; read-out: Primary fibroblast IC50 values, Mean, mean of independently fitted replicate IC50 values (Supplement S.6), ONC201 value mathematically estimated from inflection point) of the same molecule?
**A.** 4.45 µM

**Q.** What about the “Fadu Cell viability (% of controll)” value (Fadu cells; 0.7 μM) of the same molecule?
**A.** 108 % of controll and 109 % of controll

**Q.** What about the “Fadu Cell viability (% of controll)” value (Fadu cells; 1 μM) of the same molecule?
**A.** 109 % of controll and 105 % of controll

**Q.** And the “Fadu Cell viability (% of controll)” value (Fadu cells; 1.5 μM)?
**A.** 105 % of controll and 106 % of controll

**Q.** What about the “Fadu Cell viability (% of controll)” value (Fadu cells; 2.3 μM) of the same molecule?
**A.** 99 % of controll and 98 % of controll

**Q.** What about the “Fadu Cell viability (% of controll)” value (Fadu cells; 3.4 μM) of the same molecule?
**A.** 70 % of controll and 37 % of controll and 29 % of controll

**Q.** And the “Fadu Cell viability (% of controll)” value (Fadu cells; 5.1 μM)?
**A.** 10 % of controll and 1 % of controll and 2 % of controll

**Q.** What about the “Fadu Cell viability (% of controll)” value (Fadu cells; 7.7 μM) of the same molecule?
**A.** 0 % of controll

**Q.** And the “Fadu Cell viability (% of controll)” value (Fadu cells; 17.3 μM)?
**A.** 0 % of controll
